# Laboratory results published in publication PMC9189845, “Structure–Activity Relationships of 8-Hydroxyquinoline-Derived Mannich Bases with Tertiary Amines Targeting Multidrug-Resistant Cancer” (Journal of Medicinal Chemistry, 2022).
# Read-outs that look alike come from different tables or passages of the source.
# What was measured:
# [1] = UV-visible spectrophotometric titrations (pKa); format: physicochemical; settings: 25 °C; for pKa: water with 0.2% (v/v) DMSO
# Procedure: Spectrophotometrical determination of pKa values was performed as previously reported.[20],[50] An Agilent Cary 8454 diode array spectrophotometer was used to record the UV–visible spectra in the interval 200–800 nm. The path length was between 1 and 5 cm. The spectrophotometric titrations were performed in water with 0.2% (v/v) DMSO on samples containing the compounds at 2–50 μM in the pH range from 2 to 11.5 at 25.0 ± 0.1 °C at an ionic strength of 0.10 M (KCl). Proton dissociation constants and the individual spectra of the species in the different protonation states were calculated with the computer program PSEQUAD.[62]
# [2] = tested on: MES-SA cells; test: PrestoBlue viability assay, MES-SA cells; settings: Homo sapiens, MES-SA
# [3] = tested on: MES-SA/Dx5 cells; test: PrestoBlue viability assay, MES-SA/Dx5 cells (MDR, P-gp positive); settings: for IC50: Homo sapiens; for SR: selectivity ratio MES-SA vs MES-SA/Dx5, without TQ; for SR_TQ: selectivity ratio MES-SA vs MES-SA/Dx5, with TQ
# [4] = tested on: A431 cells; test: PrestoBlue viability assay, A431 cells; settings: Homo sapiens
# [5] = tested on: A431-B1 cells; test: PrestoBlue viability assay, A431-B1 (A431-ABCB1) cells
# [6] = 0.2% DMSO, I = 0.10 M KCl, read-out: pKa (OH), experimentally determined
# [7] = quinolinium nitrogen, I = 0.10 M KCl, read-out: pKa (NquinH+), experimentally determined
# [8] = 72 h, read-out: IC50 / μM MES-SA, absence of TQ, 72 h incubation
# [9] = read-out: pIC50 value MES-SA, MES-SA cells, without TQ (converted)
# [10] = MES-SA/Dx5, 72 h, read-out: IC50 / μM MES-SA/Dx5, absence of TQ, 72 h incubation
# [11] = MES-SA/Dx5, read-out: pIC50 value MES-SA/Dx5, MES-SA/Dx5 cells, without TQ (converted)
# [12] = A-431, read-out: pIC50 A431, SARM figure (converted)
# [13] = read-out: pIC50 MES-SA, absence of TQ (converted), SARM figure
# [14] = read-out: pIC50 MES-SA_TQ, presence of 1 μM TQ (converted), SARM figure
# [15] = read-out: pIC50 value MES-SA+TQ, MES-SA cells, with TQ (converted)
# [16] = read-out: pIC50 A431-B1, SARM figure (converted)
# [17] = piperidinium / pyrrolidinium / morpholinium N, read-out: pKa (other; N+amH alkylamine nitrogen), experimentally determined
# [18] = MES-SA/Dx5, read-out: pIC50 value MES-SA/Dx5 + TQ, MES-SA/Dx5 cells, with TQ (converted)
"pKa [1, 6]","pKa [1, 7]","IC50 [4, 12]","IC50 [5, 16]","pKa [1, 17]",Structure (SMILES),"IC50 [2, 8]","IC50 [2, 9]","IC50 [3, 10]","IC50 [3, 11]",SR [3],"IC50 [2, 15]",SR_TQ [3],further results
8.88 ± 0.03,3.63 ± 0.03,,,,Oc1ccc(CN2CCN(c3ccccc3)CC2)c2cccnc12 [Compound 57],3.67 ± 0.35 µM,3.63 µM,4.19 ± 0.15 µM,4.17 µM,0.88,,,"pKa ([1]; read-out: pKa (NpiperaziniumH+ closer to quinoline ring), experimentally determined): 6.69 ± 0.03"
,,23.4 µM,30.9 µM,,Cc1ccccc1N1CCN(Cc2ccc(O)c3ncccc23)CC1 [Compound 58],5.84 ± 1.02 µM,5.75 µM,3.01 ± 0.58 µM,2.95 µM,1.94,5.75 µM,1.91,"IC50 ([4]; A-431, 72 h, read-out: IC50 / µM A431, 72 h incubation): 23.3 µM; IC50 ([2]; read-out: IC50 / μM MES-SA (values in parentheses), presence of 1 μM P-gp inhibitor tariquidar (TQ)): 5.78 ± 0.49 µM; IC50 [2, 13]: 5.75 µM; IC50 [2, 14]: 5.75 µM; IC50 ([5]; 72 h, read-out: IC50 / µM A431-B1, 72 h incubation): 31.2 µM; IC50 ([3]; MES-SA/Dx5, read-out: IC50 / μM MES-SA/Dx5 (values in parentheses), presence of 1 μM P-gp inhibitor tariquidar (TQ)): 3.02 ± 0.01 µM"
9.98 ± 0.03,4.45 ± 0.03,,,1.7 ± 0.1,Oc1c(CN2CCCc3ccccc32)ccc2cccnc12 [Compound 79],10.1 ± 0.38 µM,10 µM,13.5 ± 0.7 µM,13.5 µM,0.75,,,"pKa (other; N+amH alkylamine nitrogen), experimentally determined ([1]; piperidinium / pyrrolidinium / morpholinium N, water): 1.69"
,,41.7 µM,9.55 µM,,Oc1c(C(c2ccccn2)N2CCCC2)ccc2cccnc12 (stereo not shown) [Compound 84],17.2 ± 1.86 µM,17 µM,10.2 ± 0.6 µM,10.2 µM,1.69,,,
,,49 µM,13.2 µM,,Oc1c(C(c2ccccn2)N2CCCC2)cc(Cl)c2cccnc12 (stereo not shown) [Compound 90],12 ± 1.5 µM,12 µM,6.3 ± 0.15 µM,6.31 µM,1.91,5.89 µM,1.78,"IC50 [3, 18]: 3.31 µM"
6.46 ± 0.03,1.7 ± 0.1,,,10.75 ± 0.03,Oc1c(C(c2ccccc2)N2CCCCC2)cc(Cl)c2cccnc12 (stereo not shown) [Compound 97],14.9 ± 0.18 µM,14.8 µM,14 ± 0.15 µM,13.8 µM,1.06,,,
,,50.1 µM,24 µM,,Oc1c(C(c2ccccn2)N2CCCCC2)cc(Cl)c2cccnc12 (stereo not shown) [Compound 98],31.9 ± 1.55 µM,31.6 µM,16.6 ± 0.88 µM,16.6 µM,1.92,33.1 µM,2.45,"IC50 [3, 18]: 13.5 µM"
9.42 ± 0.03,1.89 ± 0.03,,,5.53 ± 0.03,Oc1c(C(c2ccccn2)N2CCOCC2)cc(Cl)c2cccnc12 (stereo not shown) [Compound 108],40 ± 9.54 µM,38.9 µM,24.7 ± 4.26 µM,24.5 µM,1.62,,,"pKa ([1]; read-out: pKa (NpyridiniumH+), experimentally determined): < 2"
,,49 µM,17.4 µM,,CN1CCN(C(c2ccccn2)c2cc(Cl)c3cccnc3c2O)CC1 (stereo not shown) [Compound 114],16 ± 1.31 µM,15.8 µM,13.9 ± 0.46 µM,13.8 µM,1.15,,,

Structure (SMILES),"pKa [1, 6]","pKa [1, 7]","IC50 [4, 12]","IC50 [5, 16]","pKa [1, 17]","IC50 [2, 8]","IC50 [2, 9]","IC50 [3, 10]","IC50 [3, 11]",SR [3],"IC50 [2, 15]",SR_TQ [3],further results
Oc1c(C(c2ccncc2)N2CCCCC2)ccc2cccnc12 (stereo not shown) [Compound 96],,,35.5 µM,4.57 µM,,22.7 ± 0.86 µM,22.9 µM,14 ± 1.5 µM,13.8 µM,1.62,,,"IC50 [2, 13]: 15.5 µM; IC50 [2, 14]: 13.8 µM; IC50 ([3]; MES-SA/Dx5, read-out: pIC50 Dx5, absence of TQ (converted), SARM figure): 8.32 µM; IC50 ([3]; MES-SA/Dx5, read-out: pIC50 Dx5_TQ, presence of 1 μM TQ (converted), SARM figure): 12.6 µM"
